Test results published in patent US20260224588A1, “BENZODIAZEPINONE-DERIVED INHIBITORS OF EGFR AND HER2” (The Research Foundation for the State University of New York, priority 2023, published 2026).

Experiments:
Assay in all cases: KINOMEscan
Type in all cases: binding
Details in all cases: 1 μM of compound 4; read-out: POC
[1] = target: T1, FLT3(R834Q) (Homo sapiens, UniProt P36888, R834Q)
T1 construct: purchased Eurofins DiscoverX Corporation

[2] = target: T2, ERK1 (Homo sapiens, UniProt P27361)
T2 construct: purchased Eurofins DiscoverX Corporation

[3] = target: T3, p38-alpha (Homo sapiens, UniProt Q16539)
T3 construct: purchased Eurofins DiscoverX Corporation (KINOMEscan)

[4] = target: T4, SGK2 (Homo sapiens, UniProt Q9HBY8)
T4 construct: purchased Eurofins DiscoverX (KINOMEscan service)

[5] = target: T5, STK16 (Homo sapiens, UniProt O75716)
T5 construct: purchased Eurofins DiscoverX (KINOMEscan service)

[6] = target: JNK1 (Homo sapiens, UniProt P45983)
[7] = target: MYO3A (Homo sapiens, UniProt Q8NEV4)
[8] = target: MARK4 (Homo sapiens, UniProt Q96L34)
[9] = target: T6, ROCK1 (Homo sapiens, UniProt Q13464)
T6 construct: purchased Eurofins DiscoverX Corporation (KINOMEscan screening service)

[10] = target: T7, PFPK5(P. falciparum) (Plasmodium falciparum, UniProt P61075)
T7 construct: purchased Eurofins DiscoverX Corporation (KINOMEscan)

[11] = target: T8, NIM1 (Homo sapiens, UniProt Q8IY84)
T8 construct: purchased Eurofins DiscoverX Corporation (KINOMEscan)

[12] = target: T9, SYK (Homo sapiens, UniProt P43405)
T9 construct: purchased Eurofins DiscoverX Corporation

[13] = target: PIM2 (Homo sapiens, UniProt Q9P1W9)
[14] = target: AKT3 (Homo sapiens, UniProt Q9Y243)
[15] = target: T10, RSK3(Kin.Dom.1-N-terminal) (Homo sapiens, UniProt Q15349)
T10 construct: RSK3(Kin.Dom.1-N-terminal); purchased Eurofins DiscoverX (KINOMEscan service)

[16] = target: T11, HCK (Homo sapiens, UniProt P08631)
T11 construct: purchased Eurofins DiscoverX Corporation

[17] = target: T12, PAK2 (Homo sapiens, UniProt Q13177)
T12 construct: purchased Eurofins DiscoverX Corporation (KINOMEscan)

[18] = target: T13, ERBB4 (Homo sapiens, UniProt Q15303)
T13 construct: purchased Eurofins DiscoverX Corporation

[19] = target: JAK2(JH1domain-catalytic) (Homo sapiens, UniProt O60674)
[20] = target: T14, FGFR3(G697C) (Homo sapiens, UniProt P22607, G697C)
T14 construct: purchased Eurofins DiscoverX Corporation

[21] = target: BRSK1 (Homo sapiens, UniProt Q8TDC3)
[22] = target: BRAF(V600E) (Homo sapiens, UniProt P15056, V600E)
[23] = target: T15, SNRK (Homo sapiens, UniProt Q9NRH2)
T15 construct: purchased Eurofins DiscoverX (KINOMEscan service)

[24] = target: T16, TSSK1B (Homo sapiens, UniProt Q9BXA7)
T16 construct: purchased Eurofins DiscoverX Corporation

[25] = target: NEK5 (Homo sapiens, UniProt Q6P3R8)
[26] = target: T17, RAF1 (Homo sapiens, UniProt P04049)
T17 construct: purchased Eurofins DiscoverX Corporation (KINOMEscan screening service)

[27] = target: CSNK2A2 (Homo sapiens, UniProt P19784)
[28] = target: T18, EGFR(L747-E749del + A750P) (Homo sapiens, UniProt P00533, A750P/DEL747-749)
T18 construct: purchased Eurofins DiscoverX (KINOMEscan service)

[29] = target: MARK3 (Homo sapiens, UniProt P27448)
[30] = target: T19, EPHB6 (Homo sapiens, UniProt O15197)
T19 construct: purchased Eurofins DiscoverX (KINOMEscan service)

[31] = target: MYO3B (Homo sapiens, UniProt Q8WXR4)
[32] = target: T20, YANK3 (Homo sapiens, UniProt Q86UX6)
T20 construct: purchased Eurofins DiscoverX

[33] = target: T21, YSK4 (Homo sapiens, UniProt Q56UN5)
T21 construct: purchased Eurofins DiscoverX

[34] = target: T22, STK33 (Homo sapiens, UniProt Q9BYT3)
T22 construct: purchased Eurofins DiscoverX (KINOMEscan service)

[35] = target: PKMYT1 (Homo sapiens, UniProt Q99640)
[36] = target: T23, RIOK3 (Homo sapiens, UniProt O14730)
T23 construct: purchased Eurofins DiscoverX Corporation (KINOMEscan screening service)

[37] = target: T24, TNNI3K (Homo sapiens, UniProt Q59H18)
T24 construct: purchased Eurofins DiscoverX Corporation

[38] = target: LCK (Homo sapiens, UniProt P06239)

MARK3, sequence (P27448 whole entry): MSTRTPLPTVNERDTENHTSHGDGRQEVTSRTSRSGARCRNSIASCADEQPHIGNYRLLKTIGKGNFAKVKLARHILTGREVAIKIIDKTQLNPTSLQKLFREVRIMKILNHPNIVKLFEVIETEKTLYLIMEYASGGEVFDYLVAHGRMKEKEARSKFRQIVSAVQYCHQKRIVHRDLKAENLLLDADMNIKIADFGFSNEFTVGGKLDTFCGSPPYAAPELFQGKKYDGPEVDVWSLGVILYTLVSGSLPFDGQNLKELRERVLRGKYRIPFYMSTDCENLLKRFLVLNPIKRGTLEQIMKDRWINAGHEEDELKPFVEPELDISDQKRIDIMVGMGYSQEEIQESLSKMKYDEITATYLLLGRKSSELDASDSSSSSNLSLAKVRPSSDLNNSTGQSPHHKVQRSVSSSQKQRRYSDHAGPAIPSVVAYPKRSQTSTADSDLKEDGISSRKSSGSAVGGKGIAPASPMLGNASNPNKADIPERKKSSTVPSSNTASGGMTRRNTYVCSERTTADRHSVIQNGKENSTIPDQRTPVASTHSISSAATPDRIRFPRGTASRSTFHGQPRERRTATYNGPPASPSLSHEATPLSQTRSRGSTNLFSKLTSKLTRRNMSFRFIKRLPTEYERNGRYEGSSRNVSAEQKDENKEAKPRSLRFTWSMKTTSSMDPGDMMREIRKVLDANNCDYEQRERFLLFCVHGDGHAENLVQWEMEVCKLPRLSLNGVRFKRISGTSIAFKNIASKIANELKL
T4 sequence (Q9HBY8 whole entry): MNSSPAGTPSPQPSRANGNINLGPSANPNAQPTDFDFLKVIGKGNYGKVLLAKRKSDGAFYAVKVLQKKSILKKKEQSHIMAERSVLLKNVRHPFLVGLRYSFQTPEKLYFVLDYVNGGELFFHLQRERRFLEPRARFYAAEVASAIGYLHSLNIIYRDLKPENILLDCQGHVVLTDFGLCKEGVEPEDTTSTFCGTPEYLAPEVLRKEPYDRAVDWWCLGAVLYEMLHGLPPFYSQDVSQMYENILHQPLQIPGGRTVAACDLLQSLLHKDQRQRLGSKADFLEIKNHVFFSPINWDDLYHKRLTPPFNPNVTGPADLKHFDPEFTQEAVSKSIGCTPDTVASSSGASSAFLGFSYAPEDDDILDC
T19 sequence (O15197 32-1021): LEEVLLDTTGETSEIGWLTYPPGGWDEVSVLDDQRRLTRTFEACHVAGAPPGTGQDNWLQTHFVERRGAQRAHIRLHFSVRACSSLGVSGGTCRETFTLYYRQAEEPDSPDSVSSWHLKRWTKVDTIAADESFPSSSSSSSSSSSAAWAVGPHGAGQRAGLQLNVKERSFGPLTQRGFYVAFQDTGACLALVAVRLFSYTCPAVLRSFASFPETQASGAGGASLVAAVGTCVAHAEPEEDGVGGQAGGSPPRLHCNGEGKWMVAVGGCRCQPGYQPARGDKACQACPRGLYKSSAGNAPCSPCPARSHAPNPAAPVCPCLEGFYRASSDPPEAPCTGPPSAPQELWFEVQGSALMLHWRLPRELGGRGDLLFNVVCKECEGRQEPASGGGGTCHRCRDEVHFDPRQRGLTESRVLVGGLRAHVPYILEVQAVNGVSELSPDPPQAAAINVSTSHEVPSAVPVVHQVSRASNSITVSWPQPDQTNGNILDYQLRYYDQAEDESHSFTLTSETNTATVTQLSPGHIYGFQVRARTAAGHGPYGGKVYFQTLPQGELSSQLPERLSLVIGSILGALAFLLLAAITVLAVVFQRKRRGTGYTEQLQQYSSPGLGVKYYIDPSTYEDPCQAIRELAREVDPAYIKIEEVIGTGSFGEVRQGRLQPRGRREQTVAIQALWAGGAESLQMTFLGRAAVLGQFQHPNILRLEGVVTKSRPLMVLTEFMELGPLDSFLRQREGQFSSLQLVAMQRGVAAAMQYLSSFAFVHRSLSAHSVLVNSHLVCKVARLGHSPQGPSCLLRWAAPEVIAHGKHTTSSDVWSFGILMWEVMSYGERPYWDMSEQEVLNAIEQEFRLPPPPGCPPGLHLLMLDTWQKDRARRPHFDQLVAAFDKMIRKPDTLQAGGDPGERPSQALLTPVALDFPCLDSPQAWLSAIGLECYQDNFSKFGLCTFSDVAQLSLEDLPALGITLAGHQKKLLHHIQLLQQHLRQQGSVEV
T22 sequence (Q9BYT3 whole entry): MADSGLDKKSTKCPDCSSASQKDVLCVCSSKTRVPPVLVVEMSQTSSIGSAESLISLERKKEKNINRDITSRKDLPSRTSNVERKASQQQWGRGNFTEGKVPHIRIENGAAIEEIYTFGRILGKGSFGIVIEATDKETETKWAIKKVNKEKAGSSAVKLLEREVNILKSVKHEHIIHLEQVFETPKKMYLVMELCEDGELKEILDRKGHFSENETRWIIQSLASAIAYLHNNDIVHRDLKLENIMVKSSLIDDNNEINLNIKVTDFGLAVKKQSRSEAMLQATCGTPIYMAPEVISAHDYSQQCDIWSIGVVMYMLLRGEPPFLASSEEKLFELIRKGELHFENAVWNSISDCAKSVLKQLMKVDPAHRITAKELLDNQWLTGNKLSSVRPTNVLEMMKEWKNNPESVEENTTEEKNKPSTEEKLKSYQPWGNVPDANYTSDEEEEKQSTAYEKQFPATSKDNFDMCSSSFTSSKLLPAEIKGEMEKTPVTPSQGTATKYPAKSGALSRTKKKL
PKMYT1, sequence (Q99640 whole entry): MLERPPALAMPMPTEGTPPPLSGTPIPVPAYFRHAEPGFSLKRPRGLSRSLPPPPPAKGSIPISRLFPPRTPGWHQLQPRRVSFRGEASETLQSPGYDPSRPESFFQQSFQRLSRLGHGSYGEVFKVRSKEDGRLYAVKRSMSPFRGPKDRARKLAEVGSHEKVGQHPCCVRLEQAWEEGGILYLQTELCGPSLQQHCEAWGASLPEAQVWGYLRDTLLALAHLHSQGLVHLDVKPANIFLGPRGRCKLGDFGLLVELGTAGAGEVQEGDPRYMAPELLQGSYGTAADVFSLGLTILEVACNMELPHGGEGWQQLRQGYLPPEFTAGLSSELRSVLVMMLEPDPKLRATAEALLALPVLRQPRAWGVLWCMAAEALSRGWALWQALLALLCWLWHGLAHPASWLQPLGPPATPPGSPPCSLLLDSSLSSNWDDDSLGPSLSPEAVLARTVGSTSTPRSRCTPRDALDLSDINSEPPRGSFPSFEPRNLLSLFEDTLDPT
AKT3, sequence (Q9Y243 whole entry): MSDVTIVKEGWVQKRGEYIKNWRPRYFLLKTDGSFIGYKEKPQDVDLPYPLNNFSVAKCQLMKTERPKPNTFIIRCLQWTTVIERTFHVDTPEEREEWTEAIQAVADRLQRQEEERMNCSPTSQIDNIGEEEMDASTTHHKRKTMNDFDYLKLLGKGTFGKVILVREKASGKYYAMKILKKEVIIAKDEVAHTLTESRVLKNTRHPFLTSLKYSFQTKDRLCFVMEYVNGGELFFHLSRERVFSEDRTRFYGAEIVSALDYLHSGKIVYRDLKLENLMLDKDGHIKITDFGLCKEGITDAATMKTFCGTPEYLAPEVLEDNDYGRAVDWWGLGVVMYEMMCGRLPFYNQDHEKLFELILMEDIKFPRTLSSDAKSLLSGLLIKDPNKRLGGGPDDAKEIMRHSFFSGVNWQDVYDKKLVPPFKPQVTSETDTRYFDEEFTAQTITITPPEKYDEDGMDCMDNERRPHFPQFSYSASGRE
T12 sequence (Q13177 whole entry): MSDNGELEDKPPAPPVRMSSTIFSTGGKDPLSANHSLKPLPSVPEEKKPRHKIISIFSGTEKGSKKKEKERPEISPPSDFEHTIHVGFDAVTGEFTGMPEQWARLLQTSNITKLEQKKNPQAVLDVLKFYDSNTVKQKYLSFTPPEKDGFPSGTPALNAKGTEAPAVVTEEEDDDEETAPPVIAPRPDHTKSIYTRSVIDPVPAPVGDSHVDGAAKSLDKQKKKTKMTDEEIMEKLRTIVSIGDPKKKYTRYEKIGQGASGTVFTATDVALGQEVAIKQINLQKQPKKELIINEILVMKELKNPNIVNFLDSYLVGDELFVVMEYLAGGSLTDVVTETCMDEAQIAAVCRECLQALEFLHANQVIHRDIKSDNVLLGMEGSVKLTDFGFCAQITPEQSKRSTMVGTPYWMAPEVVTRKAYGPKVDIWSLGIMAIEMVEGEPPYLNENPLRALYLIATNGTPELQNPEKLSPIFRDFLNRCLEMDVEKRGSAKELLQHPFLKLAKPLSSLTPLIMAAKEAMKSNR
T14 sequence (P22607 23-806 G697C): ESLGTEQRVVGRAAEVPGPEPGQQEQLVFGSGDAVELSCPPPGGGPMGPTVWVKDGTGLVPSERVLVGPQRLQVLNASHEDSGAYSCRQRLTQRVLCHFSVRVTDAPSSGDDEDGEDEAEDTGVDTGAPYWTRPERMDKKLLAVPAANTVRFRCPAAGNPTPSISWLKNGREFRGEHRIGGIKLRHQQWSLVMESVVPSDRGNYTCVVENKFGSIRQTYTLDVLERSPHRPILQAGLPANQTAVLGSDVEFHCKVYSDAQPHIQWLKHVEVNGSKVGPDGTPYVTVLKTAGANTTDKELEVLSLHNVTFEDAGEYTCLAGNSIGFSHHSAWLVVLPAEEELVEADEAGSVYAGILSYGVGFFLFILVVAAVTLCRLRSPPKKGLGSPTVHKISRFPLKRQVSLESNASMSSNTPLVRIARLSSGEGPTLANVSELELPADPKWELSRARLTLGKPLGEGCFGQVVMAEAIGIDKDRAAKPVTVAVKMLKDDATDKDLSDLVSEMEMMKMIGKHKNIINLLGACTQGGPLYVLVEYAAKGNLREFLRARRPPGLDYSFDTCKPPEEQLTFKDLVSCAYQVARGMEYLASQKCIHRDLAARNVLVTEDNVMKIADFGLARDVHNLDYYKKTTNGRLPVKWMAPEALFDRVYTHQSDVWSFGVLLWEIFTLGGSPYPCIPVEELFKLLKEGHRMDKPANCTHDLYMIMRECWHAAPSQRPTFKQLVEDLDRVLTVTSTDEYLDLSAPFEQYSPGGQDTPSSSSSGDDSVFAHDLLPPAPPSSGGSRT

Work on `C=CC(=O)Nc1ccc(OC)c(Nc2cc(-c3[nH]c(CC)nc3-c3cccc(NC(=O)c4cccc5c4NC(=O)c4ccccc4N5)c3)ccn2)c1` [Compound 4, N-(3-(5-(2-((5-Acrylamido-2-methoxyphenyl)amino)pyridin-4-yl)-2-ethyl-1H-imidazol-4-yl)phenyl)-11-oxo-10,11-dihydro-5H-dibenzo[b,e][1,4]diazepine-9-carboxamide] yielded a remaining binding at 1 µM [1] of 100%, a remaining binding at 1 µM [2] of 99% and a remaining binding at 1 µM [3] of 46%. It also gave a remaining binding at 1 µM [4] of 83%, a remaining binding at 1 µM [5] of 100% and a remaining binding at 1 µM [6] of 85%. The remaining binding at 1 µM [7] was 14%, the remaining binding at 1 µM [8] was 92% and the remaining binding at 1 µM [9] was 100%. It also gave a remaining binding at 1 µM [10] of 100%, a remaining binding at 1 µM [11] of 78% and a remaining binding at 1 µM [12] of 63%. For the same molecule, the remaining binding at 1 µM [13] was 88%, the remaining binding at 1 µM [14] was 100% and the remaining binding at 1 µM [15] was 97%. It also gave a remaining binding at 1 µM [16] of 14%, a remaining binding at 1 µM [17] of 100% and a remaining binding at 1 µM [18] of 4.9%. It also gave a remaining binding at 1 µM [19] of 86%, a remaining binding at 1 µM [20] of 100% and a remaining binding at 1 µM [21] of 100%. For the same molecule, the remaining binding at 1 µM [22] was 100%, the remaining binding at 1 µM [23] was 82% and the remaining binding at 1 µM [24] was 95%. It also gave a remaining binding at 1 µM [25] of 100%, a remaining binding at 1 µM [26] of 73% and a remaining binding at 1 µM [27] of 58%. For the same molecule, the remaining binding at 1 µM [28] was 8%, the remaining binding at 1 µM [29] was 100% and the remaining binding at 1 µM [30] was 100%. For the same molecule, the remaining binding at 1 µM [31] was 31%, the remaining binding at 1 µM [32] was 96% and the remaining binding at 1 µM [33] was 88%. The remaining binding at 1 µM [34] was 100%, the remaining binding at 1 µM [35] was 99% and the remaining binding at 1 µM [36] was 100%. It also gave a remaining binding at 1 µM [37] of 89% and a remaining binding at 1 µM [38] of 7.7%.
